# From paper PMC7156458, “Synthetic biology based construction of biological activity-related library of fungal decalin-containing diterpenoid pyrones” (Nature Communications, 2020)
# Biological target: Aβ42 (Homo sapiens, UniProt P05067)
# Assay: Th-T (thioflavin-T) assay of Aβ42 aggregation
# Format: biochemical
# Settings: for Th-T fluorescence, mean of three wells: Aβ42 aggregation time course
# Chain of Aβ42 (P05067 672-713): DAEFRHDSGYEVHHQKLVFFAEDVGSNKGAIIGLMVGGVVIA
smiles,measurement,setting,value
C=C1CCC2C(C)(CCC=C(C)C)C(O)CCC2(C)C1Cc1c(OC)oc(CO)c(C)c1=O (stereo not drawn) [Compound 12],delay of the nucleation phase,,no delay
same,elongation of Aβ42,,partly suppressed the elongation of Aβ42
same,first Th-T assay result,"Aβ42 (10 μM) ± DPPs (20 μM), room temperature",suppressed Aβ42
same,"Th-T fluorescence, mean of three wells",reading M117,2.054
same,"Th-T fluorescence, mean of three wells",reading M118,2.063
same,"Th-T fluorescence, mean of three wells",reading M119,2.053
same,"Th-T fluorescence, mean of three wells",reading M120,2.05
same,"Th-T fluorescence, mean of three wells",reading M121,2.047
same,"Th-T fluorescence, mean of three wells",reading M122,2.039
same,"Th-T fluorescence, mean of three wells",reading M123,2.052
same,"Th-T fluorescence, mean of three wells",reading M124,2.0354
same,"Th-T fluorescence, mean of three wells",reading M125,2.03
same,"Th-T fluorescence, mean of three wells",reading M126,2.03
same,"Th-T fluorescence, mean of three wells",reading M127,2.041
same,"Th-T fluorescence, mean of three wells",reading M128,2.036
same,"Th-T fluorescence, mean of three wells",reading M129,2.023
same,"Th-T fluorescence, mean of three wells",reading M130,2.033
same,"Th-T fluorescence, mean of three wells (Fig. 7a)","column suffix _10, measurement M19",2.572
same,"Th-T fluorescence, mean of three wells (Fig. 7a)","column suffix _10, measurement M20",2.604
same,"Th-T fluorescence, mean of three wells (Fig. 7a)","column suffix _10, measurement M21",2.632
same,"Th-T fluorescence, mean of three wells (Fig. 7a)","column suffix _10, measurement M22",2.671
same,"Th-T fluorescence, mean of three wells (Fig. 7a)","column suffix _10, measurement M23",2.692
same,"Th-T fluorescence, mean of three wells (Fig. 7a)","column suffix _10, measurement M24",2.757
same,"Th-T fluorescence, mean of three wells (Fig. 7a)","column suffix _10, measurement M25",2.768
same,"Th-T fluorescence, mean of three wells (Fig. 7a)","column suffix _10, measurement M26",2.841
same,"Th-T fluorescence, mean of three wells (Fig. 7a)","column suffix _10, measurement M27",2.803
same,"Th-T fluorescence, mean of three wells (Fig. 7a)","column suffix _10, measurement M28",2.855
same,"Th-T fluorescence, mean of three wells (Fig. 7a)","column suffix _10, measurement M29",2.853
same,"Th-T assay signal, mean of three wells (Fig. 7a)","column suffix _10, reading M1",0.2279
same,"Th-T assay signal, mean of three wells (Fig. 7a)","column suffix _10, reading M2",0.2383
same,"Th-T assay signal, mean of three wells (Fig. 7a)","column suffix _10, reading M3",0.2633
same,"Th-T assay signal, mean of three wells (Fig. 7a)","column suffix _10, reading M4",0.2928
same,"Th-T assay signal, mean of three wells (Fig. 7a)","column suffix _10, reading M5",0.3222
same,"Th-T assay signal, mean of three wells (Fig. 7a)","column suffix _10, reading M6",0.3621
same,"Th-T assay signal, mean of three wells (Fig. 7a)","column suffix _10, reading M7",0.3868
same,"Th-T assay signal, mean of three wells (Fig. 7a)","column suffix _10, reading M8",0.4315
same,"Th-T assay signal, mean of three wells (Fig. 7a)","column suffix _10, reading M9",0.4649
same,"Th-T assay signal, mean of three wells (Fig. 7a)","column suffix _10, reading M10",0.5209
same,"Th-T assay signal, mean of three wells (Fig. 7a)","column suffix _10, reading M11",0.5656
same,"Th-T assay signal, mean of three wells (Fig. 7a)","column suffix _10, reading M12",0.6921
same,"Th-T assay signal, mean of three wells (Fig. 7a)","column suffix _10, reading M13",1.089
same,"Th-T assay signal, mean of three wells (Fig. 7a)","column suffix _10, reading M14",1.582
same,"Th-T assay signal, mean of three wells (Fig. 7a)","column suffix _10, reading M15",1.98
same,"Th-T assay signal, mean of three wells (Fig. 7a)","column suffix _10, reading M16",2.245
same,"Th-T assay signal, mean of three wells (Fig. 7a)","column suffix _10, reading M17",2.406
same,"Th-T assay signal, mean of three wells (Fig. 7a)","column suffix _10, reading M18",2.511
same,"Fig. 7a Th-T reading, mean of three wells","column suffix _10, reading M85",3.136
same,"Fig. 7a Th-T reading, mean of three wells","column suffix _10, reading M86",3.133
same,"Fig. 7a Th-T reading, mean of three wells","column suffix _10, reading M87",3.112
same,"Fig. 7a Th-T reading, mean of three wells","column suffix _10, reading M88",3.093
same,"Fig. 7a Th-T reading, mean of three wells","column suffix _10, reading M89",3.066
same,"Fig. 7a Th-T reading, mean of three wells","column suffix _10, reading M90",3.046
same,"Fig. 7a Th-T reading, mean of three wells","column suffix _10, reading M91",3.03
same,"Fig. 7a Th-T reading, mean of three wells","column suffix _10, reading M92",3.012
same,"Fig. 7a Th-T reading, mean of three wells","column suffix _10, reading M93",2.997
same,"Fig. 7a Th-T reading, mean of three wells","column suffix _10, reading M94",2.971
same,"Fig. 7a Th-T reading, mean of three wells","column suffix _10, reading M95",2.948
same,"Fig. 7a Th-T reading, mean of three wells","column suffix _10, reading M96",2.943
same,"Fig. 7a Th-T reading, mean of three wells","column suffix _10, reading M97",2.923
same,"Fig. 7a Th-T reading, mean of three wells","column suffix _10, reading M98",2.913
same,"Fig. 7a Th-T reading, mean of three wells","column suffix _10, reading M99",2.8964
same,"Fig. 7a Th-T reading, mean of three wells","column suffix _10, reading M100",2.873
same,"Fig. 7a Th-T reading, mean of three wells","column suffix _10, reading M101",2.854
same,"Fig. 7a Th-T reading, mean of three wells","column suffix _10, reading M102",2.835
same,"Fig. 7a Th-T reading, mean of three wells","column suffix _10, reading M103",2.818
same,"Fig. 7a Th-T reading, mean of three wells","column suffix _10, reading M104",2.806
same,"Fig. 7a Th-T reading, mean of three wells","column suffix _10, reading M105",2.7797
same,"Fig. 7a Th-T reading, mean of three wells","column suffix _10, reading M106",2.769
same,"Th-T fluorescence, mean of three wells (Fig. 7a)","column suffix _20, measurement M19",2.538
same,"Th-T fluorescence, mean of three wells (Fig. 7a)","column suffix _20, measurement M20",2.543
same,"Th-T fluorescence, mean of three wells (Fig. 7a)","column suffix _20, measurement M21",2.5199
same,"Th-T fluorescence, mean of three wells (Fig. 7a)","column suffix _20, measurement M22",2.494
same,"Th-T fluorescence, mean of three wells (Fig. 7a)","column suffix _20, measurement M23",2.481
same,"Th-T fluorescence, mean of three wells (Fig. 7a)","column suffix _20, measurement M24",2.476
same,"Th-T fluorescence, mean of three wells (Fig. 7a)","column suffix _20, measurement M25",2.43
same,"Th-T fluorescence, mean of three wells (Fig. 7a)","column suffix _20, measurement M26",2.427
same,"Th-T fluorescence, mean of three wells (Fig. 7a)","column suffix _20, measurement M27",2.441
same,"Th-T fluorescence, mean of three wells (Fig. 7a)","column suffix _20, measurement M28",2.387
same,"Th-T fluorescence, mean of three wells (Fig. 7a)","column suffix _20, measurement M29",2.411
same,"Th-T fluorescence, mean of three wells (Fig. 7a)","column suffix _20, measurement M30",2.389
same,"Th-T assay signal, mean of three wells (Fig. 7a)","column suffix _20, reading M1",0.2949
same,"Th-T assay signal, mean of three wells (Fig. 7a)","column suffix _20, reading M2",0.3314
same,"Th-T assay signal, mean of three wells (Fig. 7a)","column suffix _20, reading M3",0.3699
same,"Th-T assay signal, mean of three wells (Fig. 7a)","column suffix _20, reading M4",0.6391
same,"Th-T assay signal, mean of three wells (Fig. 7a)","column suffix _20, reading M5",1.147
same,"Th-T assay signal, mean of three wells (Fig. 7a)","column suffix _20, reading M6",1.822
same,"Th-T assay signal, mean of three wells (Fig. 7a)","column suffix _20, reading M7",2.22
same,"Th-T assay signal, mean of three wells (Fig. 7a)","column suffix _20, reading M8",2.421
same,"Th-T assay signal, mean of three wells (Fig. 7a)","column suffix _20, reading M9",2.522
same,"Th-T assay signal, mean of three wells (Fig. 7a)","column suffix _20, reading M10",2.562
same,"Th-T assay signal, mean of three wells (Fig. 7a)","column suffix _20, reading M11",2.583
same,"Th-T assay signal, mean of three wells (Fig. 7a)","column suffix _20, reading M12",2.606
same,"Th-T assay signal, mean of three wells (Fig. 7a)","column suffix _20, reading M13",2.583
same,"Th-T assay signal, mean of three wells (Fig. 7a)","column suffix _20, reading M14",2.612
same,"Th-T assay signal, mean of three wells (Fig. 7a)","column suffix _20, reading M15",2.602
same,"Th-T assay signal, mean of three wells (Fig. 7a)","column suffix _20, reading M16",2.5699
same,"Th-T assay signal, mean of three wells (Fig. 7a)","column suffix _20, reading M17",2.585
same,"Th-T assay signal, mean of three wells (Fig. 7a)","column suffix _20, reading M18",2.567
same,"Fig. 7a Th-T reading, mean of three wells","column suffix _20, reading M85",2.083
same,"Fig. 7a Th-T reading, mean of three wells","column suffix _20, reading M86",2.058
same,"Fig. 7a Th-T reading, mean of three wells","column suffix _20, reading M87",2.078
same,"Fig. 7a Th-T reading, mean of three wells","column suffix _20, reading M88",2.109
same,"Fig. 7a Th-T reading, mean of three wells","column suffix _20, reading M89",2.106
same,"Fig. 7a Th-T reading, mean of three wells","column suffix _20, reading M90",2.088
same,"Fig. 7a Th-T reading, mean of three wells","column suffix _20, reading M91",2.094
same,"Fig. 7a Th-T reading, mean of three wells","column suffix _20, reading M92",2.104
same,"Fig. 7a Th-T reading, mean of three wells","column suffix _20, reading M93",2.083
same,"Fig. 7a Th-T reading, mean of three wells","column suffix _20, reading M94",2.114
same,"Fig. 7a Th-T reading, mean of three wells","column suffix _20, reading M95",2.102
same,"Fig. 7a Th-T reading, mean of three wells","column suffix _20, reading M96",2.08
same,"Fig. 7a Th-T reading, mean of three wells","column suffix _20, reading M97",2.11
same,"Fig. 7a Th-T reading, mean of three wells","column suffix _20, reading M98",2.085
same,"Fig. 7a Th-T reading, mean of three wells","column suffix _20, reading M99",2.135
same,"Fig. 7a Th-T reading, mean of three wells","column suffix _20, reading M100",2.117
